Results from patent US10400006B2, “Estrogen receptor modulators” (THE REGENTS OF THE UNIVERSITY OF CALIFORNIA, priority 2014, dated 2019).
Entries after “also recorded” stand apart in the source; their conditions may differ.

How the values were obtained:
estrogen receptor = target: T1, estrogen receptor (Homo sapiens, UniProt P03372); experiment: Specific [3H]estradiol-17β binding in MCF-7 parental cells; settings: 10 μM compound, 2 nM [3H]estradiol-17β
T1 construct: endogenous in cells; host or cells: MCF-7 parental breast cancer cells
T1 sequence (P03372 1-595): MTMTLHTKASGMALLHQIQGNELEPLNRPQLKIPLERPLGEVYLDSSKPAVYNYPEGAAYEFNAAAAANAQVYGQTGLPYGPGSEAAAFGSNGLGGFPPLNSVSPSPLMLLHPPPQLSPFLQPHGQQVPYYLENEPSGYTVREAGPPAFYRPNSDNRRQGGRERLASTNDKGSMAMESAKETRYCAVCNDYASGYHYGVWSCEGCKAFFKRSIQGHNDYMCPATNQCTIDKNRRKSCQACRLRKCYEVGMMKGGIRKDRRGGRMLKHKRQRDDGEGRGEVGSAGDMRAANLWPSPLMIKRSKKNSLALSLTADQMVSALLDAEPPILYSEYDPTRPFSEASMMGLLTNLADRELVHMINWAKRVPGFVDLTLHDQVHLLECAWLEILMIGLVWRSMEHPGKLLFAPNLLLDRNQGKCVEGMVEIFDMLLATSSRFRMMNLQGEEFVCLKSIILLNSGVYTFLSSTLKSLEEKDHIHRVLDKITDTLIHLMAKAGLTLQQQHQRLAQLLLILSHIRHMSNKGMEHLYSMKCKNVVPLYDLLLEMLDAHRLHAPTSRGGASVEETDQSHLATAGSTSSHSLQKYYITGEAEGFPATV
Experimental: Specific estradiol binding: Specific estradiol-17β (E2) binding was assessed in MCF-7 parental breast cancer cells as before (14-16). Briefly, cells were incubated with 2 nM [^3H]estradiol-17β and varying concentrations (1 nM-10 μM) of new estrogen receptor downregulator (ERD) analogues. The efficiency of the binding of compounds was measured by the loss of radioactivity of the [^3H]estradiol-17β. A 100-fold molar excess of unlabeled E2 was present with [3H]estradiol-17β in paired samples for determination of displaceable binding. […] Compounds S1-S14 are test compounds different from the exemplified compounds described herein.

[1] = tested on: MAPK, ERK-1 (p44) and ERK-2 (p42); experiment: Estrogen-induced phosphorylation of MAPK in MCF-7 parental cells, Western blot; assay type: cell-based, human; settings: for E2-induced rapid phosphorylation of ERK-1 and ERK-2 after pre-incubation: 1000 nM, in presence of estradiol (E2)
Experimental: ERD inhibition of phosphorylation of MAPK, at both extracellular signal-regulated kinases ERK-1 (p44) and ERK-2 (p42) and downstream effects. […] Thus, we measured estrogen-induced phosphorylation of MAPK by established methods (9,15,16). Briefly, MCF-7 parental cells were estrogen deprived for 48 hrs, then treated with 1 nM estradiol-17β in the presence of new compounds (10 nM-10 μM) to be tested for antagonist activity. After treatments, cell lysates were separated by SDS-PAGE followed by Western blot using a polyclonal antibody directed to phospho-p44/p42 MAP kinase (Thr202/Tyr204) (Cell Signaling). Immunodetection with antibody against total p44/p42 (Cell Signaling) was done as a control for gel loading. […] E2 but not vehicle (CN) induced rapid phosphorylation of ERK-1 (p44) and ERK-2 (p42). This activation was prevented when cells were pre-incubated with 1000 nM ICI 182,780 (ICI; Faslodex) or 1000 nM compound S15 in the presence of estradiol (E2).

ER protein = target: T2, ER protein (Homo sapiens, UniProt P03372); experiment: ER down-regulation, Western immunoblot of ER (66 kD) in MCF-7 cells; assay type: cell-based; settings: 24 hours, 10, 100 and 1000 nM
T2 construct: endogenous in cells; host or cells: MCF-7 breast tumor cells
T2 sequence (P03372 1-595): T1 sequence (P03372 1-595)
Description: ER down-regulation: To determine if selected compounds can down-regulate ER protein, we treated cells for 24-48 hrs in vitro with candidate compounds at varying doses. Then, cells were disrupted and prepared for PAGE and Western immunoblots using anti-ERα antibodies (see FIG. 6). […] Those ERDs with optimal activity in down-regulating ER were investigated further in the chemistry laboratory to further refine and develop such agents.

[2] = tested on: human MCF-7 breast cancer cells; experiment: MCF-7 cell proliferation, BrdU ELISA, in presence of 1 nM estradiol-17β; assay type: cell-based; settings: for inhibition of MCF-7 cell proliferation/survival: 1 μM or 50 μM, in presence of 1 nM estradiol-17β, 72 hr; for effectiveness compared with fulvestrant in MCF-7 proliferation: same doses in vitro (1 μM or 50 μM)
Experimental: In experiments to assess potential proliferative effects of novel estrogen receptor ligands, human breast cancer cells were grown in phenol red-free, estrogen-free media with 1% dextran-coated charcoal-treated (DCC)-fetal bovine serum (FBS) for 48 hrs (15,44), then treated with either 1 μM or 50 μM doses of estrogen receptor antagonists in the presence of 1 nM estradiol-17β. Cell counts and viability tests (Trypan blue) were done every 24 hr for 3 days. After 72 hr, proliferation was assessed using the BrdU Cell proliferation ELISA (Roche). Cell numbers were also assessed initially by cell counts to confirm ELISA data. Each antiestrogen was tested at least in three different experiments.
In order to assess the antitumor action of novel estrogen receptor antagonists, we cultured human MCF-7 breast cancer cells with known expression of ERα. […] Cell proliferation is expressed as percentage of that determined in the 1 nM estradiol-17β-treated control group.

estrogen receptor-alpha = target: T3, estrogen receptor-alpha (Homo sapiens, UniProt P03372); experiment: Western immunoblot of ERα protein levels in MCF-7 cells after 48 hrs; assay type: cell-based; settings: 1 μM or 10 μM, in presence of 1 nM estradiol-17β
T3 construct: MCF-7 breast cancer cells with high expression of ERα protein were treated with estradiol-17β; endogenous in cells; host or cells: MCF-7 human breast cancer cells
T3 sequence (P03372 1-595): T1 sequence (P03372 1-595)

[3] = tested on: human non-small cell lung cancer cells A549; experiment: A549 non-small cell lung cancer cell proliferation, MTS assay; assay type: cell-based; settings: 1 μM or 10 μM, 72 hours, compared with fulvestrant
Experimental: Cell counts and viability tests (Trypan blue) were done every 24 hours for 3 days. After 72 hours, proliferation was assessed using the CellTiter 96™ AQueous One Solution Cell Proliferation Assay (MTS) from Promega. Cell numbers were also assessed initially by cell counts to confirm ELISA data. Each antiestrogen was tested in at least in three independent experiments.

MCF-7 parental cells = settings: xenografts in nude mice; cited from earlier work
[4] = clinic; cited from earlier work
MCF-7/HER-2 cells = settings: xenografts in nude mice; cited from earlier work
ER+ early breast cancer = settings: cited from earlier work

## C[C@]12C[C@H](Oc3ccc(N)cc3)[C@@H]3c4ccc(O)cc4CC[C@H]3[C@@H]1CC[C@@H]2O [JD105, (8S,9S,11S,13S,14S,17S)-11l-(4-aminophenoxy)-13-methyl-7,8,9,11,12,13,14,15,16,17-decahydro-6H-cyclopenta[a]phenanthrene-3,17-diol]
Estrogen receptor
  suppression of specific binding of [3H]estradiol-17β: suppressed
Estrogen receptor; listed as S15
  suppression of specific binding of [3H]estradiol-17β: suppressed effectively
[1]; 1 nM estradiol-17β
  inhibition of estrogen-induced phosphorylation of MAPK (ERK-1 p44 and ERK-2 p42): inhibits phosphorylation of MAPK
[1]
  E2-induced rapid phosphorylation of ERK-1 and ERK-2 after pre-incubation: prevented
[1]; breast tumor cells in vitro
  effectiveness compared with fulvestrant in inhibiting estrogen-induced MAPK phosphorylation: as effective as fulvestrant
ER protein
  ER protein levels in MCF-7 cells: reduces ER protein levels

## C[C@]12C[C@H](Oc3ccc(N)c(C(F)(F)F)c3)[C@@H]3c4ccc(O)cc4CC[C@H]3[C@@H]1CC[C@@H]2O [JD128, (8S,9S,11S,13S,14S,17S)-11-(4-Amino-3-(trifluoromethyl)phenoxy)-13-methyl-7,8,9,11,12,13,14,15,16,17-decahydro-6H-cyclopenta[a]phenanthrene-3,17-diol]
[2]
  inhibition of MCF-7 cell proliferation/survival: significant inhibition
  effectiveness compared with fulvestrant in MCF-7 proliferation: more effective than the ER-downregulator fulvestrant
Estrogen receptor-alpha
  ERα protein expression in MCF-7 cells: greatest effect at suppressing estrogen receptor-alpha expression

## C[C@]12C[C@H](Oc3ccc(NC(=O)CCCCN4CCCCC4)c(F)c3)[C@@H]3c4ccc(O)cc4CC[C@H]3[C@@H]1CC[C@@H]2O [JD140, N-(4-(((8S,9S,11S,13S,14S,17S)-3,17-Dihydroxy-13-methyl-7,8,9,11,12,13,14,15,16,17-deca-hydro-6H-cyclopenta[a]phenanthren-11-yl)oxy)-2-fluorophenyl)-5-(piperidin-1-yl)pentan-amide]
[2]
  inhibition of MCF-7 cell proliferation/survival: significant inhibition
  effectiveness compared with fulvestrant in MCF-7 proliferation: more effective than the ER-downregulator fulvestrant
[3]
  antiproliferative effects in A549 cells: significant antiproliferative effects
Estrogen receptor-alpha
  ERα protein expression in MCF-7 cells: down-regulated

## C[C@]12CC[C@@H]3c4ccc(O)cc4C[C@@H](CCCCCCCCC[S+]([O-])CCCC(F)(F)C(F)(F)F)[C@H]3[C@@H]1CC[C@@H]2O (stereo partly drawn) [fulvestrant]
MCF-7 parental cells
  growth of parent MCF-7 tumors: suppressed
[4]
  bioavailability: very low bioavailability; also recorded: low bioavailability
MCF-7/HER-2 cells
  sensitivity of MCF-7/HER-2 tumors: partially sensitive
[1]
  E2-induced rapid phosphorylation of ERK-1 and ERK-2 after pre-incubation: prevented

## CC/C(=C(\c1ccccc1)c1ccc(OCCN(C)C)cc1)c1ccccc1 [tamoxifen]
MCF-7 parental cells
  growth of parent MCF-7 tumors: suppressed
ER+ early breast cancer
  reduction in disease recurrence: 39%
  reduction in mortality: 31%
MCF-7/HER-2 cells
  sensitivity of MCF-7/HER-2 tumors: insensitive
